{
  "source": "patent US20230173074A1",
  "about": "“BIOCOMPATIBLE MATERIAL AND METHODS FOR MAKING AND USING THE SAME” (PLERYON THERAPEUTICS (SHENZHEN) LIMITED, priority 2020, published 2023)",
  "assay": "Release of aptamer from hydrogel (UV 260 nm)",
  "conditions": "PBS, 37° C.",
  "text": "Hydrogel was formed similar to Example 5. An aptamer similar to Macugen of the following sequence of nucleotides and functional groups: CfGmGmAAUfCfAmGmUfGmAmAmUfGmCfUfUfAmUfAmCfAmUfCfCfGm3′(SEQ ID NO:1), with 5′ end caped with 6 carbon (C6) and 3′ end caped with a 3′-dT-S′ and Cy3 fluorescent dye, was used as an aptamer example. Gm or Am and Cf or Uf represent 2-methoxy and 2-fluoro variants of their respective purines and pyrimidines, and C, A, U and G code for cytidylic, adenylic, uridylic and guanylic acids. Hydrogels were formed similar to Example 5, except that the solution before gel formation was added to the API in powder form. The gel was incubated at 37° C. for 2 days before release experiment. For the release experiment, a small portion of gel (between […]) were transferred by a 3 mL disposable plastic pipettes into a 10 ml glass vial at ambient temperature, and the mass was measured for the final release calculation. The glass vial was slowly filled up with 5 ml of PBS solutions to minimize the disturbing of gel. The release was performed at 37° C. in triplicate. At each predetermined time point, 0.5 h, 1 h, 2 h, and 4 h in this case, the sample was gently shake for 10 s and sit at ambient temperature for 10 min before 1000 μl of releasing buffer were taken for UV quantification at 260 nm. The experiments were performed in triplicate.",
  "note": "{3'dT} = capped with 3'-dT; {C6} = six-carbon (C6) cap; m = 2'-O-methyl; r = 2'-OH (RNA); f = 2'-fluoro",
  "data": [
    {"substance": "aptamer: modified RNA aptamer similar to Macugen (SEQ ID NO:1), 5′ C6 cap, 3′-dT and Cy3 dye (CGGAAUCAGUGAAUGCUUAUACAUCCG; sugars from the 5' end fmmrrffmmfmmmfmfffmfmfmfffm, 5' {C6}, 3' {3'dT}, backbone not given here; Cy3 fluorescent dye attached, further chemistry not fully specified)", "values": [
      {"measurement": "duration of release from hydrogel", "setting": "hydrogel Ap1 (FIG. 21)", "result": "about 4 hours"},
      {"measurement": "duration of release from hydrogel", "setting": "hydrogel Ap2 (FIG. 22)", "result": "about 4 hours"}
    ]}
  ]
}
